For orientation: IC50 means the concentration that gives 50% inhibition.

The target in this experiment is T1, human chemokine receptor 2 isoform B (Homo sapiens, UniProt P41597).
T1 construct: host or cells: CHOK1-CCR2B-A5 (CHO-K1)
T1 sequence (P41597 1-360 isoform P41597-2): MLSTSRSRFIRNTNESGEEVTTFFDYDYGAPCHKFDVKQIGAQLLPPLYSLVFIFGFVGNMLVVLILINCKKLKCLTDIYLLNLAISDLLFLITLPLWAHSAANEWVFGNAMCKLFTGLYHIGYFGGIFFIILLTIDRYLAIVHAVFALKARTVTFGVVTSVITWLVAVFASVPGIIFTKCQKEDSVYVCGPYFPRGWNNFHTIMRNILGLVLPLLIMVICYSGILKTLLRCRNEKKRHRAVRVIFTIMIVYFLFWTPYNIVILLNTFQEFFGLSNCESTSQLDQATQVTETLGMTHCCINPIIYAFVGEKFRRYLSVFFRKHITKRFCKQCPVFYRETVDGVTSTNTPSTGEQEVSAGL
Nature of the experiment: Calcium mobilization assay (FLIPR, CHOK1-CCR2B-A5 cells, 20 nM MCP-1). The class given is cell-based. The conditions noted are these: Ca mobilisation assay, CCR2, antagonist activity vs 20 nM MCP-1. As for the experimental part: CHOK1-CCR2B-A5 cells (from Euroscreen) stably overexpressing the human chemokine receptor 2 isoform B were cultured in Nutrient Hams F12 medium supplemented with 5% FBS, 100 U/ml penicillin, 100 μg/ml streptomycin, 400 μg/ml G418 and 5 μg/ml puromycin.
For the assay cells were grown overnight in 384-well black clear flat bottom polystyrene plates (Costar) at 37° C. at 5% CO2. After washing with DMEM, 20 mM Hepes, 2.5 mM probenecid, 0.1% BSA (DMEM assay buffer) cells were loaded with 4 μM Fluo-4 in the same DMEM assay buffer for 2 hours at 30° C. Excess dye was removed and cells were washed with DMEM assay buffer. 384-well compound plates were prepared with DMEM assay buffer/0.5% DMSO with or without various concentrations of test compounds. Usually compounds were tested for agonist and antagonist activity.
Test compounds were added to the assay plate and agonist activity was monitored as fluorescence for 80 seconds with a FLIPR (488 nm excitation; 510-570 nm emission; Molecular Devices). After 20-30 min. of incubation at 30° C., 20 nM MCP-1 (R&D; Roche) was added and fluorescence was monitored again for 80 seconds. Increases in intracellular calcium are reported as maximum fluorescence after agonist exposure minus basal fluorescence before exposure. Antagonist activity is indicated as inhibitor concentration required for 50% inhibition of specific calcium increases.
(Calcium assays in cells follow changes in intracellular calcium, usually with a dye or a luminescent sensor.)
Turning to `COC[C@H]1CCN(CCCN2CCN(C(=O)/C=C/c3ccc(Cl)c(Cl)c3)CCC2=O)C[C@H]1O` (racemic) [Example 267, (rac,cis)-1-[(E)-3-(3,4-Dichloro-phenyl)-acryloyl]-4-[3-(3-hydroxy-4-methoxymethyl-piperidin-1-yl)-propyl]-[1,4]diazepan-5-one], the IC50 is 214 nM.
Turning to `COC[C@H]1CCN(CCCN2CCN(C(=O)/C=C/c3ccc(F)c(Cl)c3)CCC2=O)C[C@H]1O` (racemic) [Example 216], the IC50 turned out to be 726 nM.
Next, `O=C(/C=C/c1ccc(Cl)c(Cl)c1)N1CCC(=O)N(CCCN2CCC(O)(c3ncco3)CC2)CC1` [Example 85, 1-[(E)-3-(3,4-Dichloro-phenyl)-acryloyl]-4-[3-(4-hydroxy-4-oxazol-2-yl-piperidin-1-yl)-propyl]-[1,4]diazepan-5-one]: 1170 nM; `COCC1(C)CCCN(CC(O)CN2CCN(C(=O)/C=C/c3ccc(Cl)c(Cl)c3)CCC2=O)C1` (racemic) [Example 306]: 391 nM; `CN(CCO)CCCCN1CCN(C(=O)/C=C/c2ccc(Cl)c(Cl)c2)CCC1=O` [Example 460]: 832 nM.
With `COC(=O)NC1CCN(CCCCN2CCN(C(=O)/C=C/c3ccc(F)c(Cl)c3)CCC2=O)CC1` [Example 401], the concentration for half-maximal inhibition (IC50) is 92 nM.
The figure for `O=C(/C=C/c1ccc(Cl)c(Cl)c1)N1CCC(=O)N(CCCCN2CCCCC2)CC1` [Example 9, 1-[(E)-3-(3,4-Dichloro-phenyl)-acryloyl]-4-(4-piperidin-1-yl-butyl)-[1,4]diazepan-5-one] is 140 nM; for `COCC1CCCN(CCCCN2CCN(C(=O)/C=C/c3ccc(Cl)c(Cl)c3)CCC2=O)C1` (stereo not shown) [Example 423] it is 16 nM; for `CC(=O)NC1CCN(CC(O)CCN2CCN(C(=O)/C=C/c3ccc(Cl)c(Cl)c3)CCC2=O)CC1` (racemic) [Example 370] it is 341 nM.
The figure for `CC(C)N1CCN(CCCCN2CCN(C(=O)/C=C/c3ccc(Cl)c(Cl)c3)CCC2=O)CC1` [Example 436] is 746 nM; for `CC(=O)NC1CCN(CCCCN2CCN(C(=O)/C=C/c3ccc(Cl)c(Cl)c3)CCC2=O)CC1` [Example 453] it is 33 nM.
Next, `C[C@@H]1CN(CCCCN2CCN(C(=O)/C=C/c3ccc(Cl)c(Cl)c3)CCC2=O)CC[C@H]1O` (racemic) [Example 455, (rac)-1-[(E)-3-(3,4-Dichloro-phenyl)-acryloyl]-4-[4-(trans-4-hydroxy-3-methyl-piperidin-1-yl)-butyl]-[1,4]diazepan-5-one]: 106 nM; `COCC1CCC(O)CN1CCCCN1CCN(C(=O)/C=C/c2ccc(Cl)c(Cl)c2)CCC1=O` (racemic) [Example 479]: 232 nM.
As to `C[C@@]1(CO)CCN(CCCCN2CCN(C(=O)/C=C/c3ccc(Cl)c(Cl)c3)CCC2=O)C[C@H]1O` [Example 474], the concentration for half-maximal inhibition (IC50) came to 106 nM.
Next, `O=C(/C=C/c1ccc(F)c(Cl)c1)N1CCC(=O)N(CCCN2CC[C@H](CO)[C@H](O)C2)CC1` (racemic) [Example 215]: 356 nM; `COC[C@H]1CCN(CCCCN2CCN(C(=O)/C=C/c3ccc(Cl)c(Cl)c3)CCC2=O)C[C@H]1OC` (racemic) [Example 470]: 85 nM; `O=C(/C=C/c1ccc(Cl)c(Cl)c1)N1CCC(=O)N(CCCN2CCC(O)CC2)CC1` [Example 159, 1-[(E)-3-(3,4-Dichloro-phenyl)-acryloyl]-4-[3-(4-hydroxy-piperidin-1-yl)-propyl]-[1,4]diazepan-5-one]: 258 nM.
Next, `CC1(CO)CCN(CCCCN2CCN(C(=O)C=Cc3ccc(Cl)c(Cl)c3)CCC2=O)CC1O` (stereo not shown) [Example 473]: 51 nM; `O=C(/C=C/c1ccc(F)c(Cl)c1)N1CCC(=O)N(C[C@@H](O)CN2CC[C@H](CO)[C@H](O)C2)CC1` (mixture of isomers) [Example 337, 1-[(E)-3-(3-Chloro-4-fluoro-phenyl)-acryloyl]-4-[(S)-2-hydroxy-3-(cis-3-hydroxy-4-hydroxymethyl-piperidin-1-yl)-propyl]-[1,4]diazepan-5-one]: 71 nM.
